Source: patent publication US9469650B2, “Melampomagnolide B derivatives” (BOARD OF TRUSTEES OF THE UNIVERSITY OF ARKANSAS, priority 2013, dated 2016)

Legend:
SNB-19 = assay: panel of 60 human tumor cell lines, growth inhibition (CNS Cancer)
SK-MEL-28 = assay: panel of 60 human tumor cell lines, growth inhibition (Melanoma)
UACC-62 = assay: as above
OVCAR-5 = assay: panel of 60 human tumor cell lines, growth inhibition (Ovarian Cancer)
SNB-75 = assay: panel of 60 human tumor cell lines, growth inhibition (CNS Cancer)
UO-31 = assay: panel of 60 human tumor cell lines, growth inhibition (Renal Cancer)
HCC-2998 = assay: panel of 60 human tumor cell lines, growth inhibition (Colon Cancer); details: for Percent Growth: HCC-2998
DU-145 = assay: panel of 60 human tumor cell lines, growth inhibition (Prostate Cancer)
RXF 393 = assay: panel of 60 human tumor cell lines, growth inhibition (Renal Cancer); details: for GI50: RXF 393, RXF 393; for Percent Growth: RXF 393
NCI-H23 = assay: panel of 60 human tumor cell lines, growth inhibition (Non-Small Cell Lung Cancer)

## C=C1C(=O)O[C@H]2[C@H]1CC/C(COC(=O)NCCc1ccccn1)=C\CC[C@@]1(C)O[C@@H]21 [JVM 61, ((1aR,7aS,10aS,10bS,E)-1a-methyl-8-methylene-9-oxo-1a,2,3,6,7,7a,8,9,10a,10b-decahydrooxireno[2′,3′:9,10]cyclodeca[1,2-b]furan-5-yl)methyl-(2-(pyridin-2-yl)ethyl)carbamate]
SNB-19; Homo sapiens, SNB-19
  GI50: 27.7 µM
SNB-19; Homo sapiens, SNB-19, read-out: LC50
  CC50: > 100 µM
SNB-19; Homo sapiens, SNB-19, read-out: TGI
  IC (TGI): 160 µM
SNB-19; SNB-19, Log10 Concentration −4.0
  Percent Growth: 3%
SNB-19; SNB-19, Log10 Concentration −5.0
  Percent Growth: 88%
SNB-19; SNB-19, Log10 Concentration −6.0
  Percent Growth: 94%
SNB-19; SNB-19, Log10 Concentration −7.0
  Percent Growth: 93%
SNB-19; SNB-19, Log10 Concentration −8.0
  Percent Growth: 97%
SK-MEL-28; Homo sapiens, SK-MEL-28
  GI50: 5.25 µM
SK-MEL-28; Homo sapiens, SK-MEL-28, read-out: LC50
  CC50: 45.5 µM
SK-MEL-28; Homo sapiens, SK-MEL-28, read-out: TGI
  IC (TGI): 18.1 µM
SK-MEL-28; SK-MEL-28, Log10 Concentration −4.0
  Percent Growth: −93%
SK-MEL-28; SK-MEL-28, Log10 Concentration −5.0
  Percent Growth: 32%
SK-MEL-28; SK-MEL-28, Log10 Concentration −6.0
  Percent Growth: 96%
SK-MEL-28; SK-MEL-28, Log10 Concentration −7.0
  Percent Growth: 96%
SK-MEL-28; SK-MEL-28, Log10 Concentration −8.0
  Percent Growth: 104%
UACC-62; Homo sapiens, UACC-62
  GI50: 6.29 µM
UACC-62; Homo sapiens, UACC-62, read-out: LC50
  CC50: 49 µM
UACC-62; Homo sapiens, UACC-62, read-out: TGI
  IC (TGI): 20.3 µM
UACC-62; UACC-62, Log10 Concentration −4.0
  Percent Growth: −90%
UACC-62; UACC-62, Log10 Concentration −5.0
  Percent Growth: 40%
UACC-62; UACC-62, Log10 Concentration −6.0
  Percent Growth: 89%
UACC-62; UACC-62, Log10 Concentration −7.0
  Percent Growth: 92%
UACC-62; UACC-62, Log10 Concentration −8.0
  Percent Growth: 100%
OVCAR-5; Homo sapiens, OVCAR-5
  GI50: 10.2 µM
OVCAR-5; Homo sapiens, OVCAR-5, read-out: LC50
  CC50: 49.5 µM
OVCAR-5; Homo sapiens, OVCAR-5, read-out: TGI
  IC (TGI): 22.5 µM
OVCAR-5; OVCAR-5, Log10 Concentration −4.0
  Percent Growth: −94%
OVCAR-5; OVCAR-5, Log10 Concentration −5.0
  Percent Growth: 51%
OVCAR-5; OVCAR-5, Log10 Concentration −6.0
  Percent Growth: 96%
OVCAR-5; OVCAR-5, Log10 Concentration −7.0
  Percent Growth: 97%
OVCAR-5; OVCAR-5, Log10 Concentration −8.0
  Percent Growth: 107%
SNB-75; Homo sapiens, SNB-75
  GI50: 3.78 µM
SNB-75; Homo sapiens, SNB-75, read-out: LC50
  CC50: 48.4 µM
SNB-75; Homo sapiens, SNB-75, read-out: TGI
  IC (TGI): 18.6 µM
SNB-75; SNB-75, Log10 Concentration −4.0
  Percent Growth: −88%
SNB-75; SNB-75, Log10 Concentration −5.0
  Percent Growth: 32%
SNB-75; SNB-75, Log10 Concentration −6.0
  Percent Growth: 74%
SNB-75; SNB-75, Log10 Concentration −7.0
  Percent Growth: 76%
SNB-75; SNB-75, Log10 Concentration −8.0
  Percent Growth: 81%
UO-31; Homo sapiens, UO-31
  GI50: 6.38 µM
UO-31; Homo sapiens, UO-31, read-out: LC50
  CC50: 51.3 µM
UO-31; Homo sapiens, UO-31, read-out: TGI
  IC (TGI): 20.8 µM
UO-31; UO-31, Log10 Concentration −4.0
  Percent Growth: −87%
UO-31; UO-31, Log10 Concentration −5.0
  Percent Growth: 40%
UO-31; UO-31, Log10 Concentration −6.0
  Percent Growth: 89%
UO-31; UO-31, Log10 Concentration −7.0
  Percent Growth: 93%
UO-31; UO-31, Log10 Concentration −8.0
  Percent Growth: 93%
HCC-2998; Log10 Concentration −4.0
  Percent Growth: −86%
HCC-2998; Log10 Concentration −5.0
  Percent Growth: 87%
HCC-2998; Log10 Concentration −6.0
  Percent Growth: 100%
HCC-2998; Log10 Concentration −7.0
  Percent Growth: 103%
HCC-2998; Log10 Concentration −8.0
  Percent Growth: 101%
HCC-2998; Homo sapiens, HCC 2998
  GI50: 16.3 µM
HCC-2998; Homo sapiens, HCC 2998, read-out: LC50
  CC50: 62.1 µM
HCC-2998; Homo sapiens, HCC 2998, read-out: TGI
  IC (TGI): 31.8 µM
DU-145; DU-145, Log10 Concentration −4.0
  Percent Growth: −87%
DU-145; DU-145, Log10 Concentration −5.0
  Percent Growth: 26%
DU-145; DU-145, Log10 Concentration −6.0
  Percent Growth: 97%
DU-145; DU-145, Log10 Concentration −7.0
  Percent Growth: 108%
DU-145; DU-145, Log10 Concentration −8.0
  Percent Growth: 102%
DU-145; Homo sapiens, DU-145
  GI50: 4.59 µM
DU-145; Homo sapiens, DU-145, read-out: LC50
  CC50: 47 µM
DU-145; Homo sapiens, DU-145, read-out: TGI
  IC (TGI): 16.9 µM
RXF 393; Homo sapiens
  GI50: 2.22 µM
RXF 393; Homo sapiens, 5-dose assay
  GI50: 2.22 µM
RXF 393; Homo sapiens, RXF 393, read-out: LC50
  CC50: 45 µM
RXF 393; Homo sapiens, RXF 393, read-out: TGI
  IC (TGI): 15.5 µM
RXF 393; Log10 Concentration −4.0
  Percent Growth: −77%
RXF 393; Log10 Concentration −5.0
  Percent Growth: 2%
RXF 393; Log10 Concentration −6.0
  Percent Growth: 76%
RXF 393; Log10 Concentration −8.0
  Percent Growth: 101%
NCI-H23; Homo sapiens, NCI-H23
  GI50: 11.3 µM
NCI-H23; Homo sapiens, NCI-H23, read-out: LC50
  CC50: 78.8 µM
NCI-H23; Homo sapiens, NCI-H23, read-out: TGI
  IC (TGI): 29.9 µM
NCI-H23; NCI-H23, Log10 Concentration −4.0
  Percent Growth: −62%
